According to patent US8071768B2, “Alkylquinoline and alkylquinazoline kinase modulators” (Janssen Pharmaceutica, N.V., priority 2005, dated 2011):

These compounds were tested against T1, TrkB (Homo sapiens, UniProt Q16620) (assay: Trk B Fluorescence Polarization Kinase Assay). Details: uncertainty ±10%.
T1 construct: purchased Upstate 14-507M
Assay type: biochemical
How it was run: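 The TrkB kinase reaction (50 nM enzyme, 20 ug/mL poly Glu4Tyr, 150 uM ATP, 5 mM MgCl2, 1% DMSO) ran 30 minutes at room temperature and was stopped with EDTA. Phosphorylation was detected by fluorescence-polarization displacement of a fluorescein phosphopeptide from an anti-phosphotyrosine antibody. IC50 came from a variable-slope sigmoidal fit of triplicates.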

T1 sequence (Q16620 32-822): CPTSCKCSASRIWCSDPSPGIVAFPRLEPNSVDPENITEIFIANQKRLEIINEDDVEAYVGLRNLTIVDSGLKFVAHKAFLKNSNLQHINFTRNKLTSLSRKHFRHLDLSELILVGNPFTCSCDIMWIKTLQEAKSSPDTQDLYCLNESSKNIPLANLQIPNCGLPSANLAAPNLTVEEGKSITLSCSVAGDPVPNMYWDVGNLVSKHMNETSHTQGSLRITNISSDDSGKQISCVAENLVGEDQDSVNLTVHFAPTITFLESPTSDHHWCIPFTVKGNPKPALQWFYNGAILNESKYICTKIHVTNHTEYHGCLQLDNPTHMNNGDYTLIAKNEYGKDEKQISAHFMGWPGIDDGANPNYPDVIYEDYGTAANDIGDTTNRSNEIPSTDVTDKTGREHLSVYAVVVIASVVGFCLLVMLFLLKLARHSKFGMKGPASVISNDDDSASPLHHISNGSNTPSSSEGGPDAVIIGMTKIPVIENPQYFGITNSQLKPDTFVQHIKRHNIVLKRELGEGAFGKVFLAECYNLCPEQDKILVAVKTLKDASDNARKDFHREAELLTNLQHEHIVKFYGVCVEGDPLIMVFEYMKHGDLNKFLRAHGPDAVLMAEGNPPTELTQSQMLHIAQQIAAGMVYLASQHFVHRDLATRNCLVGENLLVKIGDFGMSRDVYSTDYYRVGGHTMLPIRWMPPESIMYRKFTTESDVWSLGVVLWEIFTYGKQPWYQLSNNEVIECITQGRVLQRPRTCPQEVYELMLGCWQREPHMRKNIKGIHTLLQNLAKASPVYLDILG

Compound | IC50 [µM]
COc1ccc(NC(=O)N2CCC(c3ncnc4cc(OC)c(OC)cc34)CC2)cc1 [Compound 41, 4-(6,7-Dimethoxy-quinazolin-4-yl)-piperidine-1-carboxylic acid (4-methoxy-phenyl)-amide] | 11.7
CC(C)c1ccc(NC(=O)N2CCC(c3ncnc4cc(Cl)ccc34)CC2)cc1 [Compound 30, 4-(7-Chloro-quinazolin-4-yl)-piperidine-1-carboxylic acid (4-isopropyl-phenyl)-amide] | 0.7
O=C(Nc1ccc(N2CCOCC2)cc1)N1CCC(c2ncnc3cc(OCCCN4CCCCC4)ccc23)CC1 [Compound 75] | > 20
O=C1CCCN1CCCOc1ccc2c(C3CCN(C(=O)Nc4cnc(N5CCCC5)nc4)CC3)ncnc2c1 [Compound 90, 4-{7-[3-(2-Oxo-pyrrolidin-1-yl)-propoxy]-quinazolin-4-yl}-piperidine-1-carboxylic acid (2-pyrrolidin-1-yl-pyrimidin-5-yl)-amide] | 0.3
CC(C)Oc1ccc(NC(=O)N2CCC(c3ccnc4ccccc34)CC2)cc1 [Compound 6, 4-Quinolin-4-yl-piperidine-1-carboxylic acid (4-isopropoxy-phenyl)-amide] | 0.8
CS(=O)(=O)NCCCOc1ccc2c(C3CCN(C(=O)Nc4ccc(N5CCOCC5)nc4)CC3)ncnc2c1 [Compound 87, 4-[7-(3-Methanesulfonylamino-propoxy)-quinazolin-4-yl]-piperidine-1-carboxylic acid (6-morpholin-4-yl-pyridin-3-yl)-amide] | 7.2
CC(C)Oc1ccc(NC(=O)N2CCC(c3ncnc4ccccc34)CC2)cc1 [Compound 8, 4-Quinazolin-4-yl-piperidine-1-carboxylic acid (4-isopropoxy-phenyl)-amide] | 2.4
COc1cc2ncnc(C3CCN(C(=O)Nc4ccc5ncsc5c4)CC3)c2cc1OC [Compound 24, 4-(6,7-Dimethoxy-quinazolin-4-yl)-piperidine-1-carboxylic acid benzothiazol-6-ylamide] | 35
CN1CCC(COc2ccc3c(C4CCN(C(=O)Nc5ccc(N6CCCC6)cc5)CC4)ncnc3c2)CC1 [Compound 109, 4-[7-(1-Methyl-piperidin-4-ylmethoxy)-quinazolin-4-yl]-piperidine-1-carboxylic acid (4-pyrrolidin-1-yl-phenyl)-amide] | 8.9
COc1cc2ncnc(C3CCN(CC(=O)Nc4ccc(C(C)C)cc4)CC3)c2cc1OC [Compound 9, 2-[4-(6,7-Dimethoxy-quinazolin-4-yl)-piperidin-1-yl]-N-(4-isopropyl-phenyl)-acetamide] | 0.5

Results, then the compound that gave them:

IC50 [µM] | Compound
> 42 | CN1CCC[C@H]1COc1ccc2c(C3CCN(C(=O)Nc4ccc(N5CCCC5)cc4)CC3)ncnc2c1 [Compound 151, (S)-4-[7-(1-Methyl-pyrrolidin-2-ylmethoxy)-quinazolin-4-yl]-piperidine-1-carboxylic acid (4-pyrrolidin-1-yl-phenyl)-amide]
> 21 | CN1CCN(CCOc2ccc3c(C4CCN(C(=O)Nc5ccc(N6CCOCC6)cc5)CC4)ncnc3c2)CC1 [Compound 156, 4-{7-[2-(4-Methyl-piperazin-1-yl)-ethoxy]-quinazolin-4-yl}-piperidine-1-carboxylic acid (4-morpholin-4-yl-phenyl)-amide]
> 42 | CN1CCN(c2ccc3c(C4CCN(C(=O)Nc5ccc(N6CCOCC6)cc5)CC4)ncnc3c2)CC1 [Compound 135, 4-[7-(4-Methyl-piperazin-1-yl)-quinazolin-4-yl]-piperidine-1-carboxylic acid (4-morpholin-4-yl-phenyl)-amide]
33.8 | O=C(Nc1ccc(N2CCOCC2)cc1)N1CCC(c2ncnc3cc(N4CCC[C@H]4CO)ccc23)CC1 [Compound 139, (S)-4-[7-(2-Hydroxymethyl-pyrrolidin-1-yl)-quinazolin-4-yl]-piperidine-1-carboxylic acid (4-morpholin-4-yl-phenyl)-amide]
